The NIST ThermoML archive (doi:10.1021/acs.jced.6b00526)

Experiment: refractive index (Na D-line) (dimensionless); xn = mol fraction of the nth substance listed
Conditions: 100 kPa, Liquid, Standard Abbe refractometry

OCCO [1,2-ethanediol] + O
refractive index
Conditions	x2 = 0	x2 = 0.1593	x2 = 0.2669	x2 = 0.3496	x2 = 0.4449	x2 = 0.5563	x2 = 0.6518	x2 = 0.7482	x2 = 0.8444
288.15 K	1.432	1.4278	1.4239	1.4202	1.4152	1.408	1.3996	1.3881	1.3724
293.15 K	1.4306	1.4263	1.4225	1.4188	1.4138	1.4067	1.3984	1.387	1.3714
298.15 K	1.4294	1.4251	1.4212	1.4176	1.4126	1.4055	1.3973	1.386	1.3705
303.15 K	1.4282	1.4239	1.42	1.4163	1.4114	1.4043	1.3961	1.3849	1.3696
308.15 K	1.4269	1.4225	1.4187	1.415	1.4102	1.4031	1.3949	1.3838	1.3687
313.15 K	1.4257	1.4213	1.4174	1.4138	1.409	1.4019	1.3938	1.3827	1.3677
318.15 K	1.4244	1.42	1.4161	1.4125	1.4077	1.4006	1.3926	1.3816	1.3668

OCCCCO [1,4-butanediol] + O
refractive index
Conditions	x2 = 0	x2 = 0.152	x2 = 0.2513	x2 = 0.3534	x2 = 0.4482	x2 = 0.5515	x2 = 0.6527	x2 = 0.7501	x2 = 0.8492	x2 = 0.9488
288.15 K	1.447	1.4441	1.4413	1.4376	1.4332	1.4277	1.4203	1.4097	1.3913	1.3596
293.15 K	1.4455	1.4425	1.4397	1.436	1.4317	1.4262	1.4188	1.4082	1.39	1.3586
298.15 K	1.4441	1.4411	1.4383	1.4346	1.4304	1.4247	1.4174	1.4069	1.3888	1.3577
303.15 K	1.4426	1.4395	1.4368	1.4331	1.4289	1.4232	1.416	1.4056	1.3876	1.3569
308.15 K	1.4412	1.4381	1.4353	1.4316	1.4274	1.4219	1.4147	1.4044	1.3865	1.356
313.15 K	1.4398	1.4367	1.4339	1.4302	1.426	1.4205	1.4134	1.4031	1.3853	1.3552
318.15 K	1.4384	1.4352	1.4324	1.4288	1.4246	1.4191	1.412	1.4018	1.3842	1.3543

OCCCCCO [1,5-pentanediol] + O
refractive index
Conditions	x2 = 0	x2 = 0.1235	x2 = 0.2586	x2 = 0.3455	x2 = 0.4864	x2 = 0.5755	x2 = 0.6777	x2 = 0.7611	x2 = 0.8474	x2 = 0.9205
288.15 K	1.4503	1.4493	1.4477	1.4463	1.4425	1.4401	1.4342	1.4253	1.4085	1.3851
293.15 K	1.449	1.4477	1.4462	1.4447	1.4411	1.4386	1.4328	1.4239	1.4073	1.384
298.15 K	1.4478	1.4464	1.4447	1.4432	1.4396	1.4371	1.4315	1.4225	1.406	1.3828
303.15 K	1.4466	1.4448	1.4431	1.4416	1.438	1.4355	1.43	1.4211	1.4048	1.3816
308.15 K	1.4454	1.4434	1.4416	1.4402	1.4367	1.4341	1.4286	1.4197	1.4035	1.3804
313.15 K	1.4441	1.4419	1.44	1.4386	1.4352	1.4326	1.4271	1.4183	1.4022	1.3793
318.15 K	1.443	1.4408	1.4386	1.4373	1.434	1.4313	1.4259	1.4171	1.401	1.3781

OCCCO [propan-1,3-diol] + O
refractive index
Conditions	x2 = 0	x2 = 0.1737	x2 = 0.2519	x2 = 0.3669	x2 = 0.4553	x2 = 0.5501	x2 = 0.6509	x2 = 0.7532	x2 = 0.8508
288.15 K	1.4407	1.4361	1.4335	1.429	1.4248	1.419	1.4107	1.3985	1.381
293.15 K	1.4393	1.4347	1.4321	1.4276	1.4234	1.4177	1.4095	1.3973	1.38
298.15 K	1.438	1.4334	1.4308	1.4263	1.4221	1.4165	1.4083	1.3962	1.379
303.15 K	1.4367	1.432	1.4295	1.425	1.4208	1.4152	1.4071	1.3951	1.378
308.15 K	1.4353	1.4306	1.4281	1.4236	1.4194	1.4139	1.4059	1.3939	1.3771
313.15 K	1.434	1.4294	1.4268	1.4223	1.4181	1.4127	1.4047	1.3929	1.3761
318.15 K	1.4327	1.4281	1.4255	1.421	1.4169	1.4115	1.4036	1.3918	1.3752
